Measurements: article PMC5034536, “Molecular insights into substrate recognition and catalytic mechanism of the chaperone and FKBP peptidyl-prolyl isomerase SlyD” (BMC Biology, 2016)
“And” between values parts separate entries of the source, which are not always exact repeats. Equal values may be shown once.

Experiments:
TtSlyDFL N35A = TtSlyDFL N35A (Thermus thermophilus, UniProt Q5SLE7, N35A); assay: Tetrapeptide activity by NMR lineshape analysis
Protocol: (§3) Although the kcat/KM and KD values refer to different substrates, this analysis should provide valuable insights into the relative impact of a given mutation on binding and turnover.
(§4) NMR samples contained TtSlyD in 20 mM HEPES, 100 mM NaCl, pH 7.5, and 10 % (v/v) D2O. All experiments were performed at a static magnetic field strength of 14.1 T and a temperature of 25 °C. […] Lineshape analysis was performed using MATLAB.
(§5) For tetrapeptide activity studies, one-dimensional ^1H spectra of 500 μM suc-ALPF-pNA tetrapeptide containing 2 μM, 4 μM, or 6 μM of TtSlyD were recorded for the different mutants [59].

TtSlyDFL Y92A = TtSlyDFL Y92A (Thermus thermophilus, UniProt Q5SLE7, Y92A); assay: Tetrapeptide activity by NMR lineshape analysis
Protocol: as §4, §5

TtSlyDFL Y63F = TtSlyDFL Y63F (Thermus thermophilus, UniProt Q5SLE7, Y63F); assay: Tetrapeptide activity by NMR lineshape analysis
Protocol: as §3, §4, §5

TtSlyDFL A78G = TtSlyDFL A78G (Thermus thermophilus, UniProt Q5SLE7, A78G); assay: Tetrapeptide activity by NMR lineshape analysis
Protocol: as §4, §5

TtSlyDFL Y63A = TtSlyDFL Y63A (Thermus thermophilus, UniProt Q5SLE7, Y63A); assay: Tetrapeptide activity by NMR lineshape analysis
Protocol: as §4, §5

TtSlyDFL D23A = TtSlyDFL D23A (Thermus thermophilus, UniProt Q5SLE7, D23A); assay: Tetrapeptide activity by NMR lineshape analysis
Protocol: as §3, §4, §5

TtSlyDFL F128A = TtSlyDFL F128A (Thermus thermophilus, UniProt Q5SLE7, F128A); assay: Tetrapeptide activity by NMR lineshape analysis
Protocol: (§6) NMR samples contained TtSlyD in 20 mM HEPES, 100 mM NaCl, pH 7.5, and 10 % (v/v) D2O. All experiments were performed at a static magnetic field strength of 14.1 T and a temperature of 25 °C. The spectra were processed with NMRpipe [57] and analyzed with NMRview [58], except one-dimensional spectra, which were processed and analyzed using VNMRJ (Agilent, Inc.). Lineshape analysis was performed using MATLAB.
as §5

TtSlyDFL Y13F = TtSlyDFL Y13F (Thermus thermophilus, UniProt Q5SLE7, Y13F); assay: Tetrapeptide activity by NMR lineshape analysis
Protocol: as §3, §4, §5

TtSlyDFL I37G = TtSlyDFL I37G (Thermus thermophilus, UniProt Q5SLE7, I37G); assay: Tetrapeptide activity by NMR lineshape analysis
Protocol: as §3, §4, §5

TtSlyDFL H119A = TtSlyDFL H119A (Thermus thermophilus, UniProt Q5SLE7, H119A); assay: Tetrapeptide activity by NMR lineshape analysis
Protocol: as §6, §5

TtSlyDFL = assay: Tetrapeptide cis/trans isomerization activity by NMR lineshape analysis; assay type: biochemical, Thermus thermophilus
From the text: (§1) In order to accurately measure the catalytic activity of TtSlyDFL on peptidyl-prolyl cis/trans isomerization, we carried out Michaelis-Menten studies under equilibrium conditions using NMR lineshape analysis, which is capable of monitoring the rate of exchange between cis and trans conformations of the peptide substrate. Initially, we benchmarked the method against literature data using the standard suc-ALPF-pNA tetrapeptide (Fig. 7a). […] For the TtSlyDΔIF construct, we obtained kcat/KM = 0.85 ± 0.01 μM^−1s^−1, showing a minor influence of the IF domain.
(§2) Lineshape analysis was performed using MATLAB.

TtSlyDΔIF = assay: as above; assay type: biochemical, Thermus thermophilus
From the text: as §1, §2

human FKBP12 = human FKBP12 with suc-ALPF-pNA as a substrate; ref U Weininger, unpublished data; cited from earlier work
TtSlyDFL M96A = TtSlyDFL M96A (Thermus thermophilus, UniProt Q5SLE7, M96A); assay: Tetrapeptide activity by NMR lineshape analysis
Protocol: as §4, §5

TtSlyDFL Q94A = TtSlyDFL Q94A (Thermus thermophilus, UniProt Q5SLE7, Q94A); assay: Tetrapeptide activity by NMR lineshape analysis
Protocol: as §4, §5

E. coli SlyD = conditions: estimated, E. coli SlyD at high salt concentration; cited from earlier work
[1] = substrate 500 μM suc-ALPF-pNA, NMR lineshape analysis, 25 °C
[2] = suc-ALPF-pNA, relative to wild-type TtSlyDFL

TtSlyDFL H119A, sequence (Q5SLE7 entry or part of it H119A): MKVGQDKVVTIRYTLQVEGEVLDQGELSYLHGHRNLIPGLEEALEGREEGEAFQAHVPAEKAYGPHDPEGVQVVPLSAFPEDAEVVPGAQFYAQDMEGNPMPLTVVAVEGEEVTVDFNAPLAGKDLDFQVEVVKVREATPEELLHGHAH
TtSlyDFL Y13F, sequence (Q5SLE7 entry or part of it Y13F): as the sequence (Q5SLE7 entry or part of it H119A) above, with Y13F, A119H counted along it
TtSlyDFL N35A, sequence (Q5SLE7 entry or part of it N35A): as the sequence (Q5SLE7 entry or part of it H119A) above, with N35A, A119H counted along it
TtSlyDFL F128A, sequence (Q5SLE7 entry or part of it F128A): as the sequence (Q5SLE7 entry or part of it H119A) above, with A119H, F128A counted along it
TtSlyDFL I37G, sequence (Q5SLE7 entry or part of it I37G): as the sequence (Q5SLE7 entry or part of it H119A) above, with I37G, A119H counted along it
TtSlyDFL M96A, sequence (Q5SLE7 entry or part of it M96A): as the sequence (Q5SLE7 entry or part of it H119A) above, with M96A, A119H counted along it
TtSlyDFL Y92A, sequence (Q5SLE7 entry or part of it Y92A): as the sequence (Q5SLE7 entry or part of it H119A) above, with Y92A, A119H counted along it
TtSlyDFL Y63F, sequence (Q5SLE7 entry or part of it Y63F): as the sequence (Q5SLE7 entry or part of it H119A) above, with Y63F, A119H counted along it
TtSlyDFL D23A, sequence (Q5SLE7 entry or part of it D23A): as the sequence (Q5SLE7 entry or part of it H119A) above, with D23A, A119H counted along it
TtSlyDFL A78G, sequence (Q5SLE7 entry or part of it A78G): as the sequence (Q5SLE7 entry or part of it H119A) above, with A78G, A119H counted along it
TtSlyDFL Q94A, sequence (Q5SLE7 entry or part of it Q94A): as the sequence (Q5SLE7 entry or part of it H119A) above, with Q94A, A119H counted along it
TtSlyDFL Y63A, sequence (Q5SLE7 entry or part of it Y63A): as the sequence (Q5SLE7 entry or part of it H119A) above, with Y63A, A119H counted along it

With “succinyl-Ala-Leu-Pro-Phe-4-nitroanilide [suc-ALPF-pNA, modified tetrapeptide substrate analogue]” the “Activity (kcat/KM)” value (TtSlyDFL N35A; [1]) was 1.04 ± 0.28 10^6 M/s, the Relative activity (TtSlyDFL N35A; [2]) was 71% and the “Activity (kcat/KM)” value (TtSlyDFL Y92A; [1]) was 0.53 ± 0.12 10^6 M/s. The Relative activity (TtSlyDFL Y92A; [2]) was 36%, the “Activity (kcat/KM)” value (TtSlyDFL Y63F; [1]) was 1.12 ± 0.11 10^6 M/s and the Relative activity (TtSlyDFL Y63F; [2]) was 76%. The “Activity (kcat/KM)” value (TtSlyDFL A78G; [1]) was 0.76 ± 0.14 10^6 M/s, the Relative activity (TtSlyDFL A78G; [2]) was 52% and the “Activity (kcat/KM)” value (TtSlyDFL Y63A; [1]) was 0.31 ± 0.19 10^6 M/s. For the same substance, the Relative activity (TtSlyDFL Y63A; [2]) was 21%, the “Activity (kcat/KM)” value (TtSlyDFL D23A; [1]) was 1.15 ± 0.21 10^6 M/s and the Relative activity (TtSlyDFL D23A; [2]) was 78%. For the same substance, the “Activity (kcat/KM)” value (TtSlyDFL F128A; [1]) was 0.52 ± 0.16 10^6 M/s, the Relative activity (TtSlyDFL F128A; [2]) was 35% and the “Activity (kcat/KM)” value (TtSlyDFL Y13F; [1]) was 1.35 ± 0.17 10^6 M/s. For the same substance, the Relative activity (TtSlyDFL Y13F; [2]) was 92%, the “Activity (kcat/KM)” value (TtSlyDFL I37G; [1]) was 0.73 ± 0.12 10^6 M/s and the Relative activity (TtSlyDFL I37G; [2]) was 50%. For the same substance, the “Activity (kcat/KM)” value (TtSlyDFL H119A; [1]) was 1.23 ± 0.02 10^6 M/s, the Relative activity (TtSlyDFL H119A; [2]) was 84% and the kcat (TtSlyDFL; TtSlyD, suc-ALPF-pNA tetrapeptide as substrate) was > 10,000 s^−1. The kcat/KM (TtSlyDFL; TtSlyDFL, 500 μM suc-ALPF-pNA, enzyme concentration varied, linear regression, 25 °C) was 1.47 ± 0.05 10^6 M^−1s^−1 and 1.5 10^6 M^−1s^−1, the “Activity (kcat/KM)” value (TtSlyDFL; wild-type TtSlyDFL, substrate 500 μM suc-ALPF-pNA, NMR lineshape analysis, 25 °C) was 1.47 ± 0.05 10^6 M^-1 s^-1 and the kcat/KM (TtSlyDFL; wild-type TtSlyDFL, suc-ALPF-pNA as substrate, NMR lineshape analysis, equilibrium conditions, 25 °C) was 1.47 ± 0.05 µM⁻¹ s⁻¹. The Relative activity (TtSlyDFL; wild-type TtSlyDFL, suc-ALPF-pNA, reference) was 100%, the kcat/KM (TtSlyDΔIF; 500 μM suc-ALPF-pNA, enzyme concentration varied, linear regression, 25 °C) was 0.85 ± 0.01 10^6 M^−1s^−1 and the “Activity (kcat/KM)” value (TtSlyDΔIF; [1]) was 0.85 ± 0.01 10^6 M^-1 s^-1. For the same substance, the kcat/KM (TtSlyDΔIF; suc-ALPF-pNA as substrate, NMR lineshape analysis, 25 °C) was 0.85 ± 0.01 µM⁻¹ s⁻¹, the Relative activity (TtSlyDΔIF; [2]) was 58% and the kcat (human FKBP12) was “above 10,000 s^−1”. For the same substance, the “Activity (kcat/KM)” value (TtSlyDFL M96A; [1]) was 0.58 ± 0.15 10^6 M/s, the Relative activity (TtSlyDFL M96A; [2]) was 39% and the “Activity (kcat/KM)” value (TtSlyDFL Q94A; [1]) was 1.44 ± 0.49 10^6 M/s. The Relative activity (TtSlyDFL Q94A; [2]) was 98% and the Kd (E. coli SlyD) was about 44 µM.
